The nature of this data set: bioavailability study, serum [1-38]hPTH by radioimmunoassay. It is filed as in vivo, rhesus monkeys. Particulars: monkeys, nasal administration. The method, then: Compositions of Examples 1A, 6 and 9 are administered nasally to rhesus monkeys (n=5) at a dose of 100 μg/kg [1-38]hPTH. A reference composition comprising
and buffered to pH 5.5 with Na2 HPO4 /citric acid is administered i.v. at a dose of 10 μg/kg.
Blood is taken after 10, 20, 30, 45, 60, 90, 240 and 360 min after administration and stored deep frozen at -80° C. until analysed. [1-38]hPTH concentrations in serum are analysed using radioimmunoassay techniques providing a limit of detection of 0.2-0.1 ng/ml. In addition urine is collected and stored deep frozen at -80° C. until analysis of cAMP by RIA techniques.

Regarding `CC[C@H](C)[C@H](NC(=O)[C@H](CCC(=O)O)NC(=O)[C@H](CO)NC(=O)[C@@H](NC(=O)[C@@H](N)CO)C(C)C)C(=O)N[C@@H](CCC(N)=O)C(=O)N[C@@H](CC(C)C)C(=O)N[C@@H](CCSC)C(=O)N[C@@H](Cc1c[nH]cn1)C(=O)N[C@@H](CC(N)=O)C(=O)N[C@@H](CC(C)C)C(=O)NCC(=O)N[C@@H](CCCCN)C(=O)N[C@@H](Cc1c[nH]cn1)C(=O)N[C@@H](CC(C)C)C(=O)N[C@@H](CC(N)=O)C(=O)N[C@@H](CO)C(=O)N[C@@H](CCSC)C(=O)N[C@@H](CCC(=O)O)C(=O)N[C@@H](CCCNC(=N)N)C(=O)N[C@H](C(=O)N[C@@H](CCC(=O)O)C(=O)N[C@@H](Cc1c[nH]c2ccccc12)C(=O)N[C@@H](CC(C)C)C(=O)N[C@@H](CCCNC(=N)N)C(=O)N[C@@H](CCCCN)C(=O)N[C@@H](CCCCN)C(=O)N[C@@H](CC(C)C)C(=O)N[C@@H](CCC(N)=O)C(=O)N[C@@H](CC(=O)O)C(=O)N[C@H](C(=O)N[C@@H](Cc1c[nH]cn1)C(=O)N[C@@H](CC(N)=O)C(=O)N[C@@H](Cc1ccccc1)C(=O)N[C@H](C(=O)N[C@@H](C)C(=O)N[C@@H](CC(C)C)C(=O)NCC(=O)O)C(C)C)C(C)C)C(C)C` [[1-38]hPTH, hPTH[1-38]], the “serum levels reached, based on serum concentration and cumulative urinary excretion” value was “therapeutic [1-38]hPTH serum levels are achieved”.

(Values after patent US5578567A, “Nasal pharmaceutical composition” (Sandoz Ltd., priority 1990, dated 1996).)
